Measurements as given in PMC10528299, “Targeting FAK/PYK2 with SJP1602 for Anti-Tumor Activity in Triple-Negative Breast Cancer” (Current Issues in Molecular Biology, 2023).

What was measured:
Assay in all cases: Eurofins kinase profiling
Assay type in all cases: biochemical
PDGFRα(D842V)(h) = molecular target: T1, PDGFRα(D842V)(h) (Homo sapiens, UniProt P16234, D842V); conditions: read-out: residual kinase activity PDGFRα(D842V)(h)
T1 construct: purchased Eurofins KinaseProfiler
In short: (§1)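 Protein kinases were run in the KinaseProfiler radiometric format with the test compound at 1 µM, and activity was measured by incorporation of radiolabeled phosphate. The assays followed the provider's standard protocols as part of a 110-kinase panel.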

[1] = molecular target: T2, PI3 Kinase (p110b/p85a)(h) (Homo sapiens, UniProt P42338); conditions: read-out: residual kinase activity PI3 Kinase (p110b/p85a)(h)
T2 construct: purchased Eurofins KinaseProfiler
In short: as §1

Met(h) = molecular target: T3, Met(h) (Homo sapiens, UniProt P08581); conditions: for remaining activity at 1 µM: read-out: residual kinase activity Met(h)
T3 construct: purchased Eurofins KinaseProfiler
In short: as §1

Snk(h) = molecular target: T4, Snk(h) (Homo sapiens, UniProt Q9NYY3); conditions: read-out: residual kinase activity Snk(h)
T4 construct: purchased Eurofins KinaseProfiler
T4 sequence (Q9NYY3 whole entry): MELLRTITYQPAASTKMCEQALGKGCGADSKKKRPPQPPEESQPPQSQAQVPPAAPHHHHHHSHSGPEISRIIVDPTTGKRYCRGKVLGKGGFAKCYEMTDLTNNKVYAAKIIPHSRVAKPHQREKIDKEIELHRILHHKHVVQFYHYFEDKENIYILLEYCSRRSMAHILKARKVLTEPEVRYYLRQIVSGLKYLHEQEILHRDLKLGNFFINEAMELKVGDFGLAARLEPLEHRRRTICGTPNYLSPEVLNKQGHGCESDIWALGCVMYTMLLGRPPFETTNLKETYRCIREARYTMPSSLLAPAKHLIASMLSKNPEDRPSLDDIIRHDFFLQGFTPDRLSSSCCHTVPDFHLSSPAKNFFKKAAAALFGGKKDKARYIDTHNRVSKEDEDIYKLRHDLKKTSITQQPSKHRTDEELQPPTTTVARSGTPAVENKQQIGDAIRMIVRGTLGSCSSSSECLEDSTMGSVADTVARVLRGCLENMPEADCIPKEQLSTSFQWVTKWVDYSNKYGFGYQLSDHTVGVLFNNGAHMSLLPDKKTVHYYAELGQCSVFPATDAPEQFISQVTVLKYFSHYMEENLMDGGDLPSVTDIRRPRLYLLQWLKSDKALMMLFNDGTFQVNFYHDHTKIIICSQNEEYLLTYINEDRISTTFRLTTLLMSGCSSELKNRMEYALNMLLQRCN
In short: as §1

MAPK2(h) = molecular target: T5, MAPK2(h) (Homo sapiens, UniProt P28482); conditions: read-out: residual kinase activity MAPK2(h)
T5 construct: purchased Eurofins KinaseProfiler
In short: as §1

Ron(h) = molecular target: T6, Ron(h) (Homo sapiens, UniProt Q04912); conditions: read-out: residual kinase activity Ron(h)
T6 construct: purchased Eurofins KinaseProfiler
T6 sequence (Q04912 25-1400): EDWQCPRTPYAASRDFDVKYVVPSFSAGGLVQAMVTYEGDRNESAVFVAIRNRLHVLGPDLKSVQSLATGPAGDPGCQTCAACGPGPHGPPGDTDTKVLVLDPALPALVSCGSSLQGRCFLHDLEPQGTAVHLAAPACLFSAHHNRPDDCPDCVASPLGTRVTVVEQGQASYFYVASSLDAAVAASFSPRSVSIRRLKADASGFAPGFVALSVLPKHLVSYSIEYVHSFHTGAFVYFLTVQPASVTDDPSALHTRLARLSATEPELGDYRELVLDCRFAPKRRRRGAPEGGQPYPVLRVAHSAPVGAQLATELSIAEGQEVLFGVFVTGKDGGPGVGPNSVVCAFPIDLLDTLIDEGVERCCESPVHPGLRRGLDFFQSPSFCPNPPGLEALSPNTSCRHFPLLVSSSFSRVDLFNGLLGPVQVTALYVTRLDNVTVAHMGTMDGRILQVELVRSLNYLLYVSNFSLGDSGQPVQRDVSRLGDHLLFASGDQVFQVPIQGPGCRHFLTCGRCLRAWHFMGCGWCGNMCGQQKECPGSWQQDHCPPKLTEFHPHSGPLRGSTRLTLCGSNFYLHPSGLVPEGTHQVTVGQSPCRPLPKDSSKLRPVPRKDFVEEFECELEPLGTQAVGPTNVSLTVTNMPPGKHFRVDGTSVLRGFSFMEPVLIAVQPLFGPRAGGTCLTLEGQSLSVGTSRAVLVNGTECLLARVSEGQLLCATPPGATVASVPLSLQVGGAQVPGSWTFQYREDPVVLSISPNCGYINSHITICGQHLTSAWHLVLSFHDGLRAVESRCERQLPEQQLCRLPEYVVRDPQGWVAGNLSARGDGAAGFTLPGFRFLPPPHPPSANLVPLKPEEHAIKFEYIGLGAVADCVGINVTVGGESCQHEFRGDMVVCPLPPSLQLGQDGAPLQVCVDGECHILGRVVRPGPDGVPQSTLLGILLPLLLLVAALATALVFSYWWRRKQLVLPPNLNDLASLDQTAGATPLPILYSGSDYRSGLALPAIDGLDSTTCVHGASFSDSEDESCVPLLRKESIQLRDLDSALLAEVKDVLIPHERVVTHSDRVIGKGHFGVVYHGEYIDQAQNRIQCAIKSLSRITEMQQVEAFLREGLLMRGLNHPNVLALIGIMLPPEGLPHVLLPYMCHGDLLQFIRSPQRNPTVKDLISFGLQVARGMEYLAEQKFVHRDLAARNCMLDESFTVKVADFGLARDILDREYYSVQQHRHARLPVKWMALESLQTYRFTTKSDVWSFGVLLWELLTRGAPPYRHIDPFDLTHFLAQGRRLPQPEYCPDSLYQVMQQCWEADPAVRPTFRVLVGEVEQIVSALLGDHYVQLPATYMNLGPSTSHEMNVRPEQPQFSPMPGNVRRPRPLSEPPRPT
In short: as §1

Pyk2(h) = molecular target: T7, Pyk2(h) (Homo sapiens, UniProt Q14289); conditions: read-out: residual kinase activity Pyk2(h)
T7 construct: purchased Eurofins KinaseProfiler
T7 sequence (Q14289 whole entry): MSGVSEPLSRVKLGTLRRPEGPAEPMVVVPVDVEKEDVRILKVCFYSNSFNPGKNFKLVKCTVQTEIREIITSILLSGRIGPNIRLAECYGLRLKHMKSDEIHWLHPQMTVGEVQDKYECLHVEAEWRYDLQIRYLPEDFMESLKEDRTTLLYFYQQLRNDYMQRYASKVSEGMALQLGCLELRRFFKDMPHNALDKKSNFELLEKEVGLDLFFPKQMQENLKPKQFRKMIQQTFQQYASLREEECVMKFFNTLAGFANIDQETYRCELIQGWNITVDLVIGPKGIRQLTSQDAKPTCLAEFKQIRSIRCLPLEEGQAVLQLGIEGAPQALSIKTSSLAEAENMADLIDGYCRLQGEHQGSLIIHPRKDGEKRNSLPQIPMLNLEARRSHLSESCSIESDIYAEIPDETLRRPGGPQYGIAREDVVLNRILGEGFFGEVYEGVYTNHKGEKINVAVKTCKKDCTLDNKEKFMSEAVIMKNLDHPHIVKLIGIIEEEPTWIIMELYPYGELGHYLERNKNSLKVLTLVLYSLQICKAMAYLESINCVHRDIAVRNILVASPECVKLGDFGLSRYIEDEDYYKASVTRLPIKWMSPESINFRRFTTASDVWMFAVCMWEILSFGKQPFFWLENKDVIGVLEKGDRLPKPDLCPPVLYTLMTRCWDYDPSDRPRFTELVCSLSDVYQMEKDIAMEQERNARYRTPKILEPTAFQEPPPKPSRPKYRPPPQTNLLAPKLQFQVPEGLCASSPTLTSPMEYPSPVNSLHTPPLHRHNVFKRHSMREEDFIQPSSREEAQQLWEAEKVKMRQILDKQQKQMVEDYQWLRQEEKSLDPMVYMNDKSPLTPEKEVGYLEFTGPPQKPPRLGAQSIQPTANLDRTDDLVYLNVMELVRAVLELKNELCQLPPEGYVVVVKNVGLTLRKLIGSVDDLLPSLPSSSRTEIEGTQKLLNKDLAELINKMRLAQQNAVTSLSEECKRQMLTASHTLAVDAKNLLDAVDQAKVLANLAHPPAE
In short: as §1

IKKε(h) = molecular target: T8, IKKε(h) (Homo sapiens, UniProt Q14164); conditions: read-out: residual kinase activity IKKε(h)
T8 construct: purchased Eurofins KinaseProfiler
T8 sequence (Q14164 1-716): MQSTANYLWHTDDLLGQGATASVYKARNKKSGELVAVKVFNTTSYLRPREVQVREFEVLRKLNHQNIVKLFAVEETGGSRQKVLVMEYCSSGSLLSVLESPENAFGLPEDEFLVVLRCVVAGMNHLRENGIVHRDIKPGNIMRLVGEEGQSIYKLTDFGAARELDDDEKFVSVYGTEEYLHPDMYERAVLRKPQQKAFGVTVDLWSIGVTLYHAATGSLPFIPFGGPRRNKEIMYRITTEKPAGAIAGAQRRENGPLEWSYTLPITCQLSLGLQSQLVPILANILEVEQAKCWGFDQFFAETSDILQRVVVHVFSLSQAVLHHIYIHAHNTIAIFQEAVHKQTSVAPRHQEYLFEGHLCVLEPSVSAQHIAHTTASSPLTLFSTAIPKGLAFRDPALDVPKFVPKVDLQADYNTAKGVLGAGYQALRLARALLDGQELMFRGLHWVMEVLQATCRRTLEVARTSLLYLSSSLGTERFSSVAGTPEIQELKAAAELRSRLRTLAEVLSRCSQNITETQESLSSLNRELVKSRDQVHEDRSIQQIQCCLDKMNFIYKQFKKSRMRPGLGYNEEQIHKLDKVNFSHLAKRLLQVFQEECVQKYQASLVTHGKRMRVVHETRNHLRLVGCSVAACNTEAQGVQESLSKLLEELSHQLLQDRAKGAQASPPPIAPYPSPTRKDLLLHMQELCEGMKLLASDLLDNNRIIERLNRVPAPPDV
In short: as §1

TrkC(h) = molecular target: T9, TrkC(h) (Homo sapiens, UniProt Q16288); conditions: read-out: residual kinase activity TrkC(h)
T9 construct: purchased Eurofins KinaseProfiler
T9 sequence (Q16288 32-839): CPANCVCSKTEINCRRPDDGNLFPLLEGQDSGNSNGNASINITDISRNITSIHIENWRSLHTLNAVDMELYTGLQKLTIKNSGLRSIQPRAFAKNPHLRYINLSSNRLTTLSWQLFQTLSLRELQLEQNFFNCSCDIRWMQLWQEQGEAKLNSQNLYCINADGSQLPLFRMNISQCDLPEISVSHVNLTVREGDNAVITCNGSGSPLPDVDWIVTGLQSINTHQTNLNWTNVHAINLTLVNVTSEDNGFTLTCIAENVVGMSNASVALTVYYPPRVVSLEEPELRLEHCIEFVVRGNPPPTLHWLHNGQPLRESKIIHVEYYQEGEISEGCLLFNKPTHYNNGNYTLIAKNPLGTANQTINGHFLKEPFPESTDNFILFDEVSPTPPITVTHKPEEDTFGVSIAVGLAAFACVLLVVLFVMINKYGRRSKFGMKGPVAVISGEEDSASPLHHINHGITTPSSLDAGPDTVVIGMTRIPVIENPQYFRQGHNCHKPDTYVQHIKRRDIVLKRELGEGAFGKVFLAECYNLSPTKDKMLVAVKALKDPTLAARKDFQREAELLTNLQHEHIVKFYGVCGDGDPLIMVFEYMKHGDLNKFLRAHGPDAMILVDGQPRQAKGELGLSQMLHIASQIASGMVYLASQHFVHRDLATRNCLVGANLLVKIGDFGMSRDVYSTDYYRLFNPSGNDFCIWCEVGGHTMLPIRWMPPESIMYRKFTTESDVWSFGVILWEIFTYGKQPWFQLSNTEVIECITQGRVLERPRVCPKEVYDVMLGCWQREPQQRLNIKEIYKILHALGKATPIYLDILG
In short: as §1

cKit(D816H)(h) = molecular target: T10, cKit(D816H)(h) (Homo sapiens, UniProt P10721, D816H); conditions: read-out: residual kinase activity cKit(D816H)(h)
T10 construct: purchased Eurofins KinaseProfiler
In short: as §1

DAPK1(h) = molecular target: T11, DAPK1(h) (Homo sapiens, UniProt P53355); conditions: read-out: residual kinase activity DAPK1(h)
T11 construct: purchased Eurofins KinaseProfiler
In short: as §1

PDK1(h) = molecular target: T12, PDK1(h) (Homo sapiens, UniProt O15530); conditions: read-out: residual kinase activity PDK1(h)
T12 construct: purchased Eurofins KinaseProfiler
T12 sequence (O15530 1-556): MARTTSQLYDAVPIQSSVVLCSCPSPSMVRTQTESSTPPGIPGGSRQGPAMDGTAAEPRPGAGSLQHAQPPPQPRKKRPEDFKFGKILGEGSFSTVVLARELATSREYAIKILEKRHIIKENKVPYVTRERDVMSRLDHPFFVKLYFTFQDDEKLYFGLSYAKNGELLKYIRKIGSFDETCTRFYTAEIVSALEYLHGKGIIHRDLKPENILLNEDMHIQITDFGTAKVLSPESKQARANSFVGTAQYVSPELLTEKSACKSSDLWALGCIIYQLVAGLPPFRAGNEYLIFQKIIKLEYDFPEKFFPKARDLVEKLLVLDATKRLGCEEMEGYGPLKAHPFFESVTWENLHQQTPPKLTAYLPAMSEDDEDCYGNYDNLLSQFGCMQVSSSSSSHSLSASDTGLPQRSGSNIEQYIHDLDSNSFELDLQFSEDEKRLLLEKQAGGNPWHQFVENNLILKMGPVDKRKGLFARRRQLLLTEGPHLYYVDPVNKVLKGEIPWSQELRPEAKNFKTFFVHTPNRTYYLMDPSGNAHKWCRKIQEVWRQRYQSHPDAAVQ
In short: as §1

NIM1(h) = molecular target: T13, NIM1(h) (Homo sapiens, UniProt Q8IY84); conditions: read-out: residual kinase activity NIM1(h)
T13 construct: purchased Eurofins KinaseProfiler
T13 sequence (Q8IY84 whole entry): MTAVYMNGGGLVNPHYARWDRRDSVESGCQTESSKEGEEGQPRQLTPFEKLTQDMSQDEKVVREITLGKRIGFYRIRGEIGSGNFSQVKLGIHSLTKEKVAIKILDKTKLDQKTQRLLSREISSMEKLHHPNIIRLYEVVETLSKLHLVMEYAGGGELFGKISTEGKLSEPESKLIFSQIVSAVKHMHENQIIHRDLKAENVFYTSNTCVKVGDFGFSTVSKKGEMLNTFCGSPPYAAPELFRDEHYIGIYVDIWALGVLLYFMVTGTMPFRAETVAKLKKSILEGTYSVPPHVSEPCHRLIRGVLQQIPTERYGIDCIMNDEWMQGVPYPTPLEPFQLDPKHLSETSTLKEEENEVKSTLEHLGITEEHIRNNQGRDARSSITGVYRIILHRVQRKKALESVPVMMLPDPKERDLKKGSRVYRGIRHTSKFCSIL
In short: as §1

FGFR3(h) = molecular target: T14, FGFR3(h) (Homo sapiens, UniProt P22607); conditions: read-out: residual kinase activity FGFR3(h)
T14 construct: purchased Eurofins KinaseProfiler
T14 sequence (P22607 23-806): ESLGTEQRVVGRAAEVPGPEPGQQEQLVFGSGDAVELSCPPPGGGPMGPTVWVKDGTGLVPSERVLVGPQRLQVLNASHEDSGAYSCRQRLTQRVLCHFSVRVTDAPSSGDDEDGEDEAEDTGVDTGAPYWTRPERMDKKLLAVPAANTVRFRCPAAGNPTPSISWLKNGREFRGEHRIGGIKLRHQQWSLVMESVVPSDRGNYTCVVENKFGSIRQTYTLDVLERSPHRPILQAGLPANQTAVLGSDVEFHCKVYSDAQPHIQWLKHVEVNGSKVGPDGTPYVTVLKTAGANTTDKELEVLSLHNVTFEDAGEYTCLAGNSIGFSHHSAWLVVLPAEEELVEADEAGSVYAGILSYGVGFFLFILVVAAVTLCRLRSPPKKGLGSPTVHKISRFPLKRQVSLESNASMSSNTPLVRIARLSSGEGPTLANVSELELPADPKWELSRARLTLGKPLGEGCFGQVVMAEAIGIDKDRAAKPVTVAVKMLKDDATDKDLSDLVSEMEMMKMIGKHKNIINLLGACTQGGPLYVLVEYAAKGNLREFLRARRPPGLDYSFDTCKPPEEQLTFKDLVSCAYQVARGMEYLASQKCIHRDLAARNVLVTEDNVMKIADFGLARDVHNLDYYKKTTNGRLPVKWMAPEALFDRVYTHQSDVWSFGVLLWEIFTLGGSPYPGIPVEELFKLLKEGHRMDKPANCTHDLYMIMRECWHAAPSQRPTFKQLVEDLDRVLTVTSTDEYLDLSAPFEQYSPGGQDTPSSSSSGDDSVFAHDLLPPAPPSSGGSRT
In short: as §1

HIPK2(h) = molecular target: T15, HIPK2(h) (Homo sapiens, UniProt Q9H2X6); conditions: read-out: residual kinase activity HIPK2(h)
T15 construct: purchased Eurofins KinaseProfiler
In short: as §1

ROCK-I(h) = molecular target: T16, ROCK-I(h) (Homo sapiens, UniProt Q13464); conditions: read-out: residual kinase activity ROCK-I(h)
T16 construct: purchased Eurofins KinaseProfiler
In short: as §1

remaining activity at 1 µM (PDGFRα(D842V)(h)) [%] | remaining activity at 1 µM [1] [%] | remaining activity at 1 µM (Met(h)) [%] | remaining activity at 1 µM (Snk(h)) [%] | remaining activity at 1 µM (MAPK2(h)) [%] | remaining activity at 1 µM (Ron(h)) [%] | remaining activity at 1 µM (Pyk2(h)) [%] | remaining activity at 1 µM (IKKε(h)) [%] | remaining activity at 1 µM (TrkC(h)) [%] | remaining activity at 1 µM (cKit(D816H)(h)) [%] | remaining activity at 1 µM (DAPK1(h)) [%] | remaining activity at 1 µM (PDK1(h)) [%] | remaining activity at 1 µM (NIM1(h)) [%] | remaining activity at 1 µM (FGFR3(h)) [%] | remaining activity at 1 µM (HIPK2(h)) [%] | remaining activity at 1 µM (ROCK-I(h)) [%] | Compound | inhibition at 1 µM (Met(h)) [%]
119 | 105 | 76 | 113 | 94 | 91 | 60 | 102 | 104 | 98 | 83 | 117 | 85 | 91 | 94 | 107 | CONC(=O)c1ccccc1Nc1cc(Nc2cc(C)nn2C(C)C)ncc1Cl [GSK2256098] | –
87 | 103 | 42 | 64 | 87 | 72 | 6 | 88 | 13 | 94 | 94 | 66 | 78 | 44 | 16 | 103 | CNC(=O)c1ccc(Nc2ncc(C(F)(F)F)c(NCc3nccnc3N(C)S(C)(=O)=O)n2)cc1 [VS-6063, Defactinib] | –

Compound | remaining activity at 1 µM (PDGFRα(D842V)(h)) [%] | remaining activity at 1 µM [1] [%] | remaining activity at 1 µM (Met(h)) [%] | remaining activity at 1 µM (Snk(h)) [%] | remaining activity at 1 µM (MAPK2(h)) [%] | remaining activity at 1 µM (Ron(h)) [%] | remaining activity at 1 µM (Pyk2(h)) [%] | remaining activity at 1 µM (IKKε(h)) [%] | remaining activity at 1 µM (TrkC(h)) [%] | remaining activity at 1 µM (cKit(D816H)(h)) [%] | remaining activity at 1 µM (DAPK1(h)) [%] | remaining activity at 1 µM (PDK1(h)) [%] | remaining activity at 1 µM (NIM1(h)) [%] | remaining activity at 1 µM (FGFR3(h)) [%] | remaining activity at 1 µM (HIPK2(h)) [%] | remaining activity at 1 µM (ROCK-I(h)) [%] | inhibition at 1 µM (Met(h)) [%]
CNC(=O)c1cccc(C)c1Nc1nc(Nc2ccc(N3CCN(C4C5CC6CC4CC(O)(C6)C5)CC3)cc2OC)ncc1C(F)(F)F (stereo not shown) [SJP1602, 2-((2-((4-(4-((2s,5r)-5-hydroxyadamantan-2-yl)piperazin-1-yl)-2-methoxyphenyl)amino)-5-(trifluoromethyl)pyrimidin-4-yl)amino)-N,3-dimethylbenzamide] | 141 | 100 | 21 | 105 | 95 | 75 | 4 | 103 | 120 | 124 | 108 | 102 | 95 | 86 | 100 | 101 | 79
